Entries after “also recorded” stand apart in the source; their conditions may differ. Where two headings read alike, the source gives them in different places.
Legend:
iNOS gene [1] = experiment: Transcriptional activation of the iNOS gene in A549 cells (gel-shift assays); assay type: cell-based; details: 50 μg/ml, human A549 cells
[2] = test system: experimental allergic encephalomyelitis (EAE), PLP immunization; experiment: Clinical severity of PLP-induced EAE in SWXJ-14 mice; assay type: in vivo
Procedure: FIG. 2. Effect of daily administration of c-PTIO (carboxy-PTIO) on EAE in SWXJ-14 mice. EAE was induced in SWJX-14 mice by two subcutaneous immunizations (d.0 and d.7) of […] PLP in CFA over two injection sites. Mice (N=3) were treated beginning on day 5 post-immunization with 2 mg/mouse c-PTIO […] i.p. and was continued until day 16 post-immunization (day 0 being the day of first immunization). Mean severity scores were graded as detailed in Table 1.
FIG. 4. Effect of D609 on the development of EAE in SWXJ-14 mice. SWXJ-mice were immunized with PLP as detailed for FIG. 2. Mice (n=2) were treated i.p. with 1 mg/mouse D609 from day 5 through day 14 post-immunization. Mean severity scores were graded as detailed in Table 1.
FIG. 12. Effect of the administration of various doses of uric acid on EAE in SWXJ-14 mice. EAE was induced in SWXJ-14 mice by two subcutaneous immunizations (d.0 and 7) of […] PLP in CFA over two injection sites. Mice (n=5) were treated once daily, beginning on day 5 post-immunization, with the indicated doses of uric acid. Mean severity scores were graded as detailed in Table 1.
(§1) Induction of EAE in rats by adoptive transfer of MBP-specific T cells or in SJL or SWXJ-14 mice by immunization with MBP or PLP 139-151, a peptide derived from […] [8], results in variable disease. We have scored the clinical systems of EAE as tabulated below.
(§2) Severity scores and symptoms of Experimental Allergic
(§3) 1 piloerection, tail weakness
(§4) 3 hind limb weakness/paralysis
(§5) 4 hind and forelimb paralysis
(§6) In FIG. 1, EAE was elicited in 11 week old female Lewis rats by the adoptive transfer of 20×10^6 cells of the MBP-specific line 5HGBP.G5 activated by stimulation with MBP and syngeneic APC 48 hours previously and NO levels measured 5 days after transfer. In SWXJ-14 mice, EAE was triggered by two subcutaneous immunizations (d.0 and 7) with 100 μg PLP in CFA over two injection sites, and NO levels measured 18 days later. Results expressed represent the mean values obtained from a minimum of 4 animals. Peak severity of the symptoms of EAE ranged from 2-3 for the rats and 4-5 for the mice. NO was semi-quantitated using spin trapping with DETC and EPR-spectroscopy as described previously.
(§7) Clinical symptoms manifest as an ascending paralysis approximately 13 days after immunization and the disease rapidly progresses to its fatal endpoint by day 16-20. […] NO levels in the brains and spinal cords of animals treated with a single daily dose of PTIO were semi-quantitated by spin trapping and EPR spectroscopy on day 17 after immunization, one day after treatment was terminated. […] We expect that the removal of NO by PTIO should not necessarily interfere with the induction of the response responsible for NO production and that as the supplied PTIO is used up NO levels should rapidly return to control values.
(§8) In contrast to SJL mice, SWX mice immunized with PLP undergo a progressive,often fatal form of EAE. Clinical symptoms manifest as an ascending paralysis approximately 13 days after immunization and the disease rapidly progresses to its fatal endpoint by days 16-20. […] We conclude that the amount of carboxy-PTIO we administered, especially considering the short in vivo half life of the compound, was only sufficient to delay the onset of the EAE in the SWXJ-14 mouse.
NO is not universally considered to be a molecule with significant in vivo toxicity and peroxynitrite is thought to be the more toxic molecule produced by activated inflammatory cells resulting from the interaction of NO and superoxide. We would henceforth expect that removal of NO would reduce peroxynitrite formation. To determine whether NO or peroxynitrite is more likely to be ultimately responsible for clinical disease in EAE we have performed a series of experiments using uric acid, a known scavenger of peroxynitrite, to treat EAE induced in SWXJ-14 mice by immunization with PLP.

NF-κB [3] = experiment: Activation of transcription factor NF-κB in RAW 264.7 cells; assay type: cell-based; details: 50 μg/ml, mouse RAW 264.7 cells
A549 cells = experiment: Nitrite production by activated A549 cells (Griess reaction); assay type: cell-based, human; details: 50 μg/ml; IL-1β, γIFN, TNFα activated
Procedure: FIG. 5. […] The accumulation of nitrite over time was measured in the presence and absence of D609. Human A549 cells were activated with IL-1β (100 units/ml), γIFN (500 units/ml) and TNFα (10 ng/ml), and the accumulation of nitrite over time was measured using the Griess reaction. The concentration of nitrite was calculated using a standard solution of nitrite in culture media.
We have employed the human lung carcinoma cell line A549 (ATCC) and, as for comparison, the mouse monocyte-macrophage cell line RAW 264.7 (ATCC) as producers of NO. Treatment of RAW 264.7 cells with 1 μg/ml of LPS or A549 cells with IL-1β (100 units/ml), γIFN (500 units/ml), and TNFα (10 ng/ml) stimulates the production of NO which can be detected by the accumulation of nitrite in culture supernatants. Using these methods of stimulation, RAW cells produced up to 100 μM of nitrite during 24 hours of culture while the A549 cells generally produced roughly 10 fold less nitrite in our experiments.

[4] = test system: phosphatidylcholine-specific phospholipase C (PC-PLC); details: via blocking activation of PC-PLC [16]; cited from earlier work
iNOS gene [5] = experiment: Transcriptional activation of the iNOS gene in RAW 264.7 cells (gel-shift assays); assay type: cell-based; details: 50 μg/ml, mouse RAW 264.7 cells
NF-κB [6] = experiment: Activation of transcription factor NF-κB in A549 cells; assay type: cell-based; details: 50 μg/ml, human A549 cells
[7] = test system: experimental allergic encephalomyelitis (EAE), MBP-specific T cell transfer; experiment: Clinical severity of adoptive transfer EAE in Lewis rats; assay type: in vivo; details: EAE mediated by T cell transfer
Excerpt: as §1
______________________________________
as §2, §3, §4, §5, §6
Rats were injected i.v. with 20×10^6 MBP-specific CD4 T cells activated in vitro. Two days later the animals were treated with a single dose of either PTIO (20 mg) or a mixture of PTIO (20 mg), indomethacin (1 mg), and allopurinol (13 mg). Treatment was continued on a daily basis until day 4 and animals were sacrificed for NO measurement the following day.

[8] = rats, i.v. or i.p., estimated; cited from earlier work
nitric oxide (NO) [9] = experiment: NO levels in spinal cord and brain of SJL mice with EAE; assay type: in vivo
Procedure: (§9) SJL mice are immunized subcutaneously with pMBP in adjuvant to induce EAE, from which they often recover. Commencing ten days post-immunization, groups of mice (n=6) were treated once daily with 2 mg of either PTIO or carboxy-PTIO intraperitoneally and observed for clinical signs of EAE which were graded as detailed in Table 1. […] At 18 days […], NO determinations were performed in several mice from each group.

Water solubility = assay type: physicochemical
nitric oxide (NO) [10] = experiment: NO levels in brain and spinal cord of SWXJ-14 mice with EAE (spin trapping with DETC, EPR); assay type: in vivo
Procedure: FIG. 3. Effect of daily administration of c-PTIO on NO levels in the brain and spinal cord of SWXJ-14 mice immunized with PLP. SWXJ-14 mice were immunized as described below for FIG. 1. Beginning 4 days post immunization, mice (n=7) were treated with 2 mg c-PTIO given i.p. until 16 days post-immunization. Mean severity scores were graded as detailed in Table 1. Mean nitric oxide levels in brain and spinal cord were semi-quantitated using spin-trapping with DETC and EPR spectroscopy at 17 days post-immunization as described elsewhere. (For brain or spinal cord results are represented as follows: Left hand column: untreated. Center column: treated with c-PTIO. Right hand column: no EAE control)
FIG. 13. Effect of the administration of uric acid on brain and spinal cord NO levels and the clinical severity of EAE in SWXJ-14 mice. SWXJ-14 mice were immunized with PLP in CFA as described for FIG. 12 and treated once daily with the indicated doses of uric acid i.p. At day 16 post-immunization the animals were euthanized and NO levels in brain and spinal cord assessed as detailed for FIG. 3. Results are for individual mice. Each central white column represents the spinal cord NO level. The black column to the left of a white column represents the clinical severity score. The cross hatched column to the right of a white column represents the brain NO level.
as §6, §7, §8
At 16 days after immunization, several mice from each group were euthanized so that NO levels in their brains and spinal cords could be measured using spin-trapping and EPR spectroscopy.

[11] = mice, i.v. or i.p., estimated; cited from earlier work
[12] = test system: experimental allergic encephalomyelitis (EAE), immunization-elicited; experiment: Clinical severity of immunization-elicited EAE in SJL mice; assay type: in vivo
Excerpt: as §1, §2, §3, §4, §5, §9

[13] = test system: experimental allergic encephalomyelitis (EAE), PLP immunization; experiment: Survival of SWXJ-14 mice with EAE; assay type: in vivo
Procedure: FIG. 14. Comparison of the survival of SWXJ-14 mice with EAE treated with PTIO and uric acid. SWXJ-mice were immunized with PLP in CFA as described for FIG. 12 and treated once daily with a 2 mg dose of uric acid or PTIO i.p. from day 5 to day 13, followed by two daily doses on day 14 and three daily doses thereafterward.
To more directly compare the action of PTIO and uric acid in EAE we have administered each of these agents in parallel to PLP-immunized SWXJ-14 mice. In these experiments the mice were immunized with PLP and treated with increasing doses of PTIO or uric acid beginning at day 5 after immunization.

[14] = day 17 after immunization, one day after treatment ended
[15] = single daily dose of 100 mg/kg, day 17

S=C(S)OC1CC2CC1C1CCCC21 (stereo not shown) [D609, tricyclodecan-9-yl-xanthogenate]
Transcriptional activation of the iNOS gene (iNOS gene [1]): inhibits the transcriptional activation of the iNOS gene | Onset of clinical symptoms of EAE (FIG. 4) ([2]; 1 mg daily i.p., day 5-14): delays the onset of the clinical symptoms of EAE | Activation of transcription factor NF-κB (NF-κB [3]): inhibits | Nitrite production by A549 cells (FIG. 5) (A549 cells): completely inhibited nitrite production; also recorded: inhibits nitrite production | Induction of iNOS [4]: inhibits the induction of iNOS by blocking the activation of phosphatidylcholine-specific phospholipase C (PC-PLC) | Transcriptional activation of the iNOS gene (iNOS gene [5]): inhibits the transcriptional activation of the iNOS gene | Activation of transcription factor NF-κB (NF-κB [6]): inhibits

CC1(C)N([O])C(c2ccc(C(=O)O)cc2)=[N+]([O-])C1(C)C [carboxy-PTIO, 2-(4-carboxyphenyl)-4,4,5,5-tetramethylimidazoline-1-oxyl-3-oxide]
Treatment of EAE mediated by T cell transfer [7]: successfully treated | Biological half-life in blood [8]: less than five | Overall NO production and therapeutic effect in SWXJ-14 mice ([2]; carboxy-PTIO administration): limited NO production to the spinal cord and had a clear therapeutic effect | Onset and severity of clinical symptoms of EAE (FIG. 9) ([2]; single daily dose of 100 mg/kg): delays the onset and reduces the severity of the clinical symptoms of EAE | Onset and severity of clinical symptoms of EAE (FIG. 2) ([2]; two daily doses of 100 mg/kg): delays the onset and reduces the severity of the clinical symptoms of EAE | Clinical course of EAE (FIG. 11) ([2]; two daily doses of approximately 2 mg): dramatically improves the clinical course of EAE by comparison with a single daily dose | Brain NO increase (FIG. 8) (nitric oxide (NO) [9]; 2 mg once daily i.p., day 18): also inhibited | NO levels in spinal cord (FIG. 8) (nitric oxide (NO) [9]; 2 mg once daily i.p., day 18): lower in the spinal cords | Levels of NO in spinal cord (nitric oxide (NO) [9]; SJL mice, i.p. administration): reduce levels of NO detected in spinal cord | NO-spinal cord (nitric oxide (NO) [9]; SJL mouse - immunization EAE, Table 2): 1.4 mM | Water solubility (Water solubility): water soluble | NO levels in brain (FIG. 3) (nitric oxide (NO) [10]; [14]): low levels of NO in brain tissue compared to untreated PLP-immunized controls | NO levels in spinal cord (FIG. 3) (nitric oxide (NO) [10]; [14]): somewhat less than the spinal cord NO levels detected in the surviving untreated animals | NO induction in brain (FIG. 10) (nitric oxide (NO) [10]; [15]): prevented the induction of NO in brain | NO levels in spinal cord (FIG. 10) (nitric oxide (NO) [10]; [15]): somewhat less than the spinal cord NO levels detected in the surviving untreated animals | Biological half-life in blood [11]: less than five | Onset and severity of EAE (FIG. 7) ([12]; 2 mg once daily i.p. from day 10 post-immunization, n=6): delayed onset of disease and somewhat lessened severity by comparison with untreated animals | Clinical symptoms of EAE ([12]; SJL mice, i.p. administration): forestall the appearance of clinical symptoms of EAE | Clinical severity ([12]; SJL mouse - immunization EAE, severity score 1-5, Table 2): 0.7

Oc1nc(O)c2[nH]c(O)nc2n1 [uric acid, 2,6,8-trihydroxypurine]
Mice remaining healthy (FIG. 12) ([2]; high dose of uric acid): The majority of the mice treated with a high dose of uric acid remained healthy throughout the length of the experiment | Onset and severity of clinical symptoms of EAE (FIG. 12) ([2]; uric acid once daily from day 5 post-immunization): delays the onset and severity of the clinical symptoms of EAE in these animals in a dose dependent fashion | NO levels in spinal cord and brain (FIG. 13) (nitric oxide (NO) [10]; day 16, mice that failed to show symptoms of EAE): significant levels of NO were detected in spinal cord and brain | Improvement in clinical signs of surviving mice (FIG. 14) ([13]; at termination of the experiment): a number were actually beginning to show some improvement in the clinical signs of their disease | Mice still alive (FIG. 14) ([13]; several days after day 18, 2 mg i.p. once daily day 5-13, two doses day 14, then three daily): 80%

— patent US5872124A, “Treatment of diseases of the central nervous system using uric acid as a scavenger of peroxynitrite” (Thomas Jefferson University, priority 1996, dated 1999)
